The conditions of data set [1]: 2015, cited from earlier work.
For data set [2], the system named is DGGCs. In words: GCaMP6f brain slice Ca2+ imaging of DGGCs after sham or CCI-TBI. The format is cell-based, mice. An excerpt:
Neuromodulation of TRPC generates robust Ca2+ influx and facilitates neuronal hyperexcitability. […] To assess the post-injury effect of TRPC channel upregulation on neurons, we used Ca2+ imaging in brain slice to measure excitability as a product of intracellular Ca2+ gating by TRPC1/4/5 channels (FIG. 4). […] Transgenic mice with the GCaMP6f transgene were used to detect changes in cellular Ca2+-activated fluorescence. We hypothesized that DGGC activity increases due to muscarinic stimulation with ACh or direct activation of TRPC4-containing channels with EA. Sensitivity was tested by bath perfusion of ACh or EA to the slice for 5 minutes during Ca2+ imaging to quantify peak amplitude of GCaMP6f fluorescence per cell, duration of Ca2+ influx, and the field-frequency of events (FIG. 4).
Brain slice Ca2+ imaging. Transverse slices (300 μm) of hippocampus were cut with a vibratome (Thermo Scientific Microm HM650V) from Cre-CamK2+/GCamp6f+/− mice. […] Hippocampal slices were maintained in oxygenated ACSF at 30° C. for 60 min, and experiments performed at 28° C. […] Neurons were visually identified with a Nikon FN-1 microscope equipped with a 40× water-immersion objective and infrared differential interference contrast. GCaMP6f fluorescence was obtained using a SOLA Light Engine Illumination source (Lumecor) with an output of 3.5W through a 3 mm diameter liquid light guide through a Nikon ET-GFP filter. Nikon Elements software was used for image acquisition through a QIClick CCD camera (Qlmaging) with a Uniblitz Model VMM-D 1 shutter driver. Baseline time series of the DG granule layer were acquired in the presence of bath solution perfusion for 2 min. […] Images were acquired in time series with an exposure time of 200 ms at 2-10 fps at 12-bit rate and no binning. Time-series image stacks were processed with ImageJ. Images were background subtracted using the mean of the 5% lowest pixel values. Ca2+ signal events were quantified for each cell as change in fluorescence divided by the baseline fluorescence (ΔF/FO) after background subtraction. ROI signals were detrended before quantification to account for drift due to gradual photobleaching of the background.

Data set [3] deals with DGGCs. As to the kind of experiment: Ca2+ imaging with calcium green-1 in DGGCs of hippocampal slices, whole-cell mode. The format is cell-based, mice. To be noted: M084 and ML204 together, 10 μm. The procedure:
(§1) Hippocampal Slice Preparation. […] Hippocampal slices were maintained in oxygenated ACSF at 30° C. for 60 min and experiments were performed at 25° C.
Ca2^+ Imaging. Concurrent with patch-clamp electrophysiology, neurons in slices were also imaged (Nikon FN-1, 40× water-immersion objective) via the fluorescent Ca^2+-reporter dye calcium green-1. As a hexapotassium salt, the dye (10 μm) was added to the intracellular patch pipette solution and neurons were patched under whole-cell clamp, as described above. Cells were loaded for 10 min before image acquisition. Fluorescence intensity was obtained using a SOLA Light Engine illumination source (Lumencor) with an output of 3.5 W through a 3-mm-diameter liquid light guide through a Nikon ET-GFP filter. Nikon Elements software was used for image acquisition through a QIClick CCD camera (QImaging). Images were acquired with an exposure time of 200 ms every 2 min using a single-channel, 12-bit rate and no binning. The shutter was closed between each acquisition. For each cell, the corrected total cell fluorescence was measured as the integrated density intensity—(cell area*mean background emission). Ca^2+ signals were measured as the change in fluorescence relative to the baseline fluorescence (ΔF/F0). Averages of four images were thresholded at 10%, masked using a highly averaged image of the cell, and encoded with a pseudocolor look-up table. Group cell fluorescence data were averaged in comparison with normalized intensity at each time point.

For the next data set, the target named is T1, TRPC3 (Homo sapiens, UniProt Q13507).
T1 sequence (Q13507 1-921): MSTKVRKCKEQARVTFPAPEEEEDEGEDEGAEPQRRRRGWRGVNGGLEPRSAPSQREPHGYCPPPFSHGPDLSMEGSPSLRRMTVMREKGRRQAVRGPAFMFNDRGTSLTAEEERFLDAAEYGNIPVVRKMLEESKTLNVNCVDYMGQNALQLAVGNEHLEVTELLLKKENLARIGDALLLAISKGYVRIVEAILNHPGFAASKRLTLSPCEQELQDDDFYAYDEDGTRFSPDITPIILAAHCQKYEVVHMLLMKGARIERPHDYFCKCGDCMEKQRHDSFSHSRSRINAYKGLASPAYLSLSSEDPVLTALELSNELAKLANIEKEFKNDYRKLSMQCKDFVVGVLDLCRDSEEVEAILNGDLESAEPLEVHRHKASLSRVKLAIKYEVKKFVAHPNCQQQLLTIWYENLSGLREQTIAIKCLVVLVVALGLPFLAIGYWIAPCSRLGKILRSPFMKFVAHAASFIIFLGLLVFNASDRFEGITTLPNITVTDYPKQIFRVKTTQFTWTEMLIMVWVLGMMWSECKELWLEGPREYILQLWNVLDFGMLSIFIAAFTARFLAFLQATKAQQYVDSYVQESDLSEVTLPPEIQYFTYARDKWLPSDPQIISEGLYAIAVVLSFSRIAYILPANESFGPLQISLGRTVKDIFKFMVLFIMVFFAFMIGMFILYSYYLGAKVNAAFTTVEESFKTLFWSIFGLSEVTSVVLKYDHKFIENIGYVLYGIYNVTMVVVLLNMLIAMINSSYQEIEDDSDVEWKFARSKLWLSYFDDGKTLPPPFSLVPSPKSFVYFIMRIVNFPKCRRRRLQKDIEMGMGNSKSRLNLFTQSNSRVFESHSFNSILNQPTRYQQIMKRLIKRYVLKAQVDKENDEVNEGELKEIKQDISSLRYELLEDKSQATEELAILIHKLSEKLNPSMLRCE
To be noted: description; cited from earlier work.

Data set [4] concerns pilocarpine-induced seizures. In words: Pilocarpine-induced chemoconvulsant seizure model. To be noted: M084 10 mg/kg 30 min before pilocarpine 280 mg/kg, n=8. Type of data set: in vivo, mice.
Method: After administration of scopolamine (1 mg/kg), control mice were pretreated with saline vehicle and then were administered pilocarpine (280 mg/kg) 30 min later.
The muscarinic agonist pilocarpine was used to induce seizures in vivo. Two-month-old mice were injected with scopolamine methylnitrate (1 mg/kg; MP Biomedicals) to block peripheral mAChRs 30 min before administration of pilocarpine hydrochloride (280 mg/kg; Sigma-Aldrich). Drugs were delivered via intraperitoneal injection in 0.9% sterile saline at a total volume equivalent to 1% of the mouse body weight. Control mice were given the same dose of scopolamine followed by vehicle saline 30 min later. […] Peak seizure activity was observed 60 min after pilocarpine delivery with occasional forelimb clonus.
Data set [5] deals with DGGCs. In words: Patch-clamp / current-clamp recordings of DGGCs in hippocampal slices (action potentials, AHP, IM amplitude). The format is cell-based, mice. The procedure:
as §1
(Patch clamp records ionic current or voltage across a cell membrane.)

Where [6] appears, read: TRPC4/5 channels blocked, control or plus 77-LH-28-1 3 μM.

Structures are written as SMILES.

Turning to `CCCCNc1nc2ccccc2[nH]1` [M084, N-butyl-1H-benzimidazol-2-amine], the “brain concentration at time of PTZ challenge” value in data set [1] (1 hour after M084 10 mg/kg s.c., inferred from Yang et al.) is given as “likely within the micromolar range”. Besides, in data set [1] (Yang et al.), the blood-brain barrier crossing entry is given as “crosses the blood-brain barrier”. The “Ca2+ peak amplitude” value in the data set with DGGCs [2] (EA 1 μM + M084 10 μM, ipsilateral DGGCs from TBI mice) is 1.44±0.05 ΔF/F. For the same compound, the “duration of Ca2+ influx” value with DGGCs [2] (M084 10 μM added to EA 1 μM) is reported as “attenuated the duration of influx to baseline levels”. For the same compound, the “maximum calcium-green 1 emission on muscarinic stimulation” value with DGGCs [3] was 1.61±0.21 fold. For the same compound, at TRPC3, the “effect on TRPC3” value was “weak inhibitor or antagonist”. Also, in data set [4], the “mean maximum Racine seizure stage” value amounted to 1.1±0.5 and the status epilepticus entry was “not observed in any animal”. For the same compound, the action potential threshold in the data set with DGGCs [5] (M084 10 μm only, n=8 cells) was −45.4±1.3 mV. Moreover, the “action potential firing rate on M1R agonist” value in the data set on DGGCs [5] (TRPC4/5 blockade with M084 10 μm, 77-LH-28-1 3 μm) is on record as “did not increase”. Also, in the data set on DGGCs [5] (setting [6]), the AHP amplitude is 13.2 ± 0.7 mV, the AHP area is listed as 196.8 ± 13.3 ms* mV and the AHP decay worked out at 14.8 ± 0.7 ms. For the same compound, the “membrane potential values (voltage floor), control ACSF vs 77-LH-28-1 3 μm” value in the data set on DGGCs [5] (in presence of M084 10 μm) was “no significant differences”.

Source of the values: patent publication US11878012B2, “Compositions and methods for treating traumatic brain injury” (Board of Regents, the University of Texas System, priority 2020, dated 2024).
